Patent publication US9944635B2, “Deuterated pyrazino[2,1-a]isoquinoline compounds and methods of treatment using the same” (Concert Pharmaceuticals, Inc., priority 2011, dated 2018)
Where two headings read alike, the source gives them in different places.

Experiments:
[1] = Metabolic stability in human liver microsomes (in vitro half-life); format: in vitro ADME
Method: Human liver microsomes (20 mg/mL) are obtained from Xenotech, LLC (Lenexa, Kans.). β-nicotinamide adenine dinucleotide phosphate, reduced form (NADPH), magnesium chloride (MgCl2), and dimethyl sulfoxide (DMSO) are purchased from Sigma-Aldrich. 7.5 mM stock solutions of test compounds were prepared in DMSO. The 7.5 mM stock solutions were diluted to 50 μM in acetonitrile (ACN). The 20 mg/mL human liver microsomes were diluted to 0.625 mg/mL in 0.1 M potassium phosphate buffer, pH 7.4, containing 3 mM MgCl2. The diluted microsomes were added to wells of a 96-well deep-well polypropylene plate in triplicate. A 10 μL aliquot of the 50 μM test compound was added to the microsomes and the mixture was pre-warmed for 10 minutes. Reactions were initiated by addition of pre-warmed NADPH solution. The final reaction volume was 0.5 mL and contained 0.5 mg/mL human liver microsomes, 1.0 μM test compound, and 2 mM NADPH in 0.1 M potassium phosphate buffer, pH 7.4, and 3 mM MgCl2. The reaction mixtures were incubated at 37° C., and 50 μL aliquots were removed at 0, 5, 10, 20, and 30 minutes and added to shallow-well 96-well plates which contained 50 μL of ice-cold ACN with internal standard to stop the reactions. The plates were stored at 4° C. for 20 minutes after which 100 μL of water was added to the wells of the plate before centrifugation to pellet precipitated proteins. Supernatants were transferred to another 96-well plate and analyzed for amounts of parent remaining by LC-MS/MS using an Applied Bio-systems API 4000 mass spectrometer. […] Testing was done in triplicate.

[2] = test system: schistosoma; conditions: enantiomer comparison, Meyer et al. 2009; cited from earlier work
[3] = FDA label for BILTRICIDE; cited from earlier work
[4] = pH 7.4, Table 3, 0.5 mg/mL HLM, 1.0 μM test compound, 2 mM NADPH, 37° C., read-out: Half-life (t½) Run No. 9
[5] = pH 7.4, Table 3, 0.5 mg/mL HLM, 1.0 μM test compound, 2 mM NADPH, 37° C., read-out: Half-life (t½) Run No. 10
[6] = pH 7.4, Table 3, 0.5 mg/mL HLM, 1.0 μM test compound, 2 mM NADPH, 37° C., read-out: Half-life (t½) Run No. 11
[7] = pH 7.4, Table 3, 0.5 mg/mL HLM, 1.0 μM test compound, 2 mM NADPH, 37° C., read-out: Half-life (t½) Run No. 12
[8] = pH 7.4, Table 3, average of runs 9-12, read-out: Half-life (t½) AVE ± SD
[9] = pH 7.4, Table 1, 0.5 mg/mL HLM, 1.0 μM test compound, 2 mM NADPH, 37° C., read-out: t1/2 Run No. 1
[10] = pH 7.4, Table 1, 0.5 mg/mL HLM, 1.0 μM test compound, 2 mM NADPH, 37° C., read-out: t1/2 Run No. 2
[11] = pH 7.4, Table 1, 0.5 mg/mL HLM, 1.0 μM test compound, 2 mM NADPH, 37° C., read-out: t1/2 Run No. 3
[12] = pH 7.4, Table 1, 0.5 mg/mL HLM, 1.0 μM test compound, 2 mM NADPH, 37° C., read-out: t1/2 Run No. 4
[13] = pH 7.4, Table 1, average of runs 1-4, read-out: t1/2 AVE ± SD
[14] = pH 7.4, Table 2, 0.5 mg/mL HLM, 1.0 μM test compound, 2 mM NADPH, 37° C., read-out: t1/2 Run No. 5
[15] = pH 7.4, Table 2, 0.5 mg/mL HLM, 1.0 μM test compound, 2 mM NADPH, 37° C., read-out: t1/2 Run No. 6
[16] = pH 7.4, Table 2, 0.5 mg/mL HLM, 1.0 μM test compound, 2 mM NADPH, 37° C., read-out: t1/2 Run No. 8
[17] = pH 7.4, Table 2, average of runs 5-8, read-out: t1/2 AVE ± SD
[18] = pH 7.4, Table 2, 0.5 mg/mL HLM, 1.0 μM test compound, 2 mM NADPH, 37° C., read-out: t1/2 Run No. 7

Row | half-life at 1 μM [1, 4] [min] | half-life at 1 μM [1, 5] [min] | half-life at 1 μM [1, 6] [min] | half-life at 1 μM [1, 7] [min] | half-life at 1 μM [1, 8] [min] | half-life at 1 μM [1, 12] [min] | half-life at 1 μM [1, 13] [min] | half-life at 1 μM [1, 14] [min] | half-life at 1 μM [1, 15] [min] | half-life at 1 μM [1, 16] [min] | half-life at 1 μM [1, 17] [min] | half-life at 1 μM [1, 18] [min] | SMILES | further results
1 | 48.9 | 46.7 | 56.3 | 45.8 | 49.4 ± 4.8 |  |  |  |  |  |  |  | [2H]C1([2H])CCC(C(=O)N2CC(=O)N3CCc4ccccc4[C@@H]3C2)CC1 [101(a), (R)-2-(4,4-d2-Cyclohexanecarbonyl)-2,3,6,7-tetrahydro-1H-pyrazino[2,1-a]isoquinolin-4(11bH)-one] | 
2 | 57.4 | 53.6 | 50.1 | 46 | 51.8 ± 4.9 |  |  |  |  |  |  |  | [2H]C1([2H])C([2H])([2H])C([2H])([2H])C([2H])(C(=O)N2CC(=O)N3CCc4ccccc4[C@@H]3C2)C([2H])([2H])C1([2H])[2H] [102(a), (R)-2-(Cyclohexane-d11-carbonyl)-2,3,6,7-tetrahydro-1H-pyrazino[2,1-a]isoquinolin-4(11bH)-one] | 
3 | 52.7 |  | 50 | 55.5 | 50 ± 5.9 |  |  |  |  |  |  |  | [2H]C1([2H])C(C(=O)N2CC(=O)N3CCc4ccccc4[C@@H]3C2)C([2H])([2H])C([2H])([2H])C([2H])([2H])C1([2H])[2H] [103(a), (R)-2-(2,2,3,3,4,4,5,5,6,6-d10-Cyclohexanecarbonyl)-2,3,6,7-tetrahydro-1H-pyrazino[2,1-a]isoquinolin-4(11bH)-one] | 
4 | 39.5 | 38.7 | 43.2 | 55.4 | 44.2 ± 7.7 |  |  |  |  |  |  |  | [2H]C1([2H])CC(C(=O)N2CC(=O)N3CCc4ccccc4[C@@H]3C2)CC([2H])([2H])C1([2H])[2H] [109(a), (R)-2-(3,3,4,4,5,5-d6-Cyclohexanecarbonyl)-2,3,6,7-tetrahydro-1H-pyrazino[2,1-a]isoquinolin-4(11bH)-one] | 
5 |  |  |  |  |  |  |  |  |  |  |  |  | O=C(C1CCCCC1)N1CC(=O)N2CCc3ccccc3[C@@H]2C1 [(R) Praziquantel] | schistosomicidal activity [2]: has schistosomicidal activity
6 |  |  |  |  |  | 52.7 | 46.7 ± 4.4 | 56.7 | 53.9 | 60.1 | 52.2 ± 9.7 |  | [2H]C1([2H])CCC(C(=O)N2CC(=O)N3CCc4ccccc4C3C2)CC1 (centres unmarked) [Compound 101, 2-(Cyclohexane-4,4-d2-carbonyl)-2,3,6,7-tetrahydro-1H-pyrazino[2,1-a]isoquinolin-4(11bH)-one] | half-life at 1 μM [1, 9]: 47.4 min; half-life at 1 μM [1, 10]: 43.6 min; half-life at 1 μM [1, 11]: 43.1 min
7 |  |  |  |  |  | 66.2 | 55.7 ± 8.7 | 54.8 | 50.6 | 52.4 | 50.7 ± 4.2 | 44.9 | [2H]C1([2H])C([2H])([2H])C([2H])([2H])C([2H])(C(=O)N2CC(=O)N3CCc4ccccc4C3C2)C([2H])([2H])C1([2H])[2H] (centres unmarked) [Compound 102, 2-(Cyclohexane-d11-carbonyl)-2,3,6,7-tetrahydro-1H-pyrazino[2,1-a]isoquinolin-4(11bH)-one] | half-life at 1 μM [1, 9]: 56.4 min; half-life at 1 μM [1, 10]: 55.4 min; half-life at 1 μM [1, 11]: 44.8 min
8 |  |  |  |  |  |  |  | 65.1 | 51.6 | 69.3 | 61.7 ± 7.6 | 60.6 | [2H]C1([2H])C(C(=O)N2CC(=O)N3CCc4ccccc4C3C2)C([2H])([2H])C([2H])([2H])C([2H])([2H])C1([2H])[2H] (centres unmarked) [Compound 103, 2-(Cyclohexane-2,2,3,3,4,4,5,5,6,6-d10-carbonyl)-2,3,6,7-tetrahydro-1H-pyrazino[2,1-a]isoquinolin-4(11bH)-one] | 
9 |  |  |  |  |  |  |  | 55.7 | 53.5 | 51.2 | 52.2 ± 4.6 | 46.4 | [2H]C1([2H])CC(C(=O)N2CC(=O)N3CCc4ccccc4C3C2)CC([2H])([2H])C1([2H])[2H] (centres unmarked) [Compound 109, 2-(Cyclohexane-3,3,4,4,5,5,-d6-carbonyl)-2,3,6,7-tetrahydro-1H-pyrazino[2,1-a]isoquinolin-4(11bH)-one] | 
10 | 29.5 | 31.5 | 35.1 | 30.5 | 31.7 ± 2.5 | 44.7 | 38.9 ± 3.9 | 41.2 | 43.8 | 36.9 |  | 30.6 | O=C(C1CCCCC1)N1CC(=O)N2CCc3ccccc3C2C1 (centres unmarked) [Praziquantel, 2-(cyclohexylcarbonyl)-1,2,3,6,7,11b-hexahydro-4H-pyrazino[2,1-a]isoquinolin-4-one, reference compound] | portion of a dose excreted in the kidneys [3]: Approximately 80%; portion of the renally excreted dose in the form of metabolites [3]: > 99%
